Measurements from patent US20200205399A1, “COMPOSITION FOR CRYOPRESERVATION, METHOD FOR PRODUCING CRYOPRESERVED MATERIAL, CELL PREPARATION, METHOD FOR PRODUCING CELL PREPARATION, AND KIT FOR CRYOPRESERVATION” (TWO CELLS Co., Ltd., priority 2017, published 2020).
Entries after “also recorded” stand apart in the source; their conditions may differ.

Tested on: gMSC (registered trademark) 1
Test: Experimental cryopreservation of gMSC 1 (scaffold-free, three-dimensional mass of mesenchymal stem cells); cell count after thawing
Format: cell-based, human
Conditions: conclusion from gMSC 1 experiments, constituent added to 10% DMSO + basal medium + albumin
Description: Primary cultured human synovium-derived MSCs were obtained through the following steps (1) to (4) or were obtained by shredding a tissue into fragments, immersing them in a culture solution (STK1) in a culture vessel, and allowing outgrowth of cells from the tissue fragments.
(1) Synovial tissue was taken from a human.
(2) The obtained synovial tissue was washed with PBS, then the tissue was added to 10 ml of a 0.4% collagenase solution and blended, and allowed to react at 37° C. for 1 to 4 hours.
(3) The resultant product was subjected to filtering and then centrifugation to recover the synovial tissue.
(4) Primary culture was carried out in a STK (registered trademark) 1 in accordance with the instructions from the manufacturer of the STK 1.
The primary cultured cells obtained in the above manner were subcultured and proliferated in a STK (registered trademark) 2 by repeated subculture, in accordance with the instructions from the manufacturer of the STK 2.
MSCs in a sub-confluent state (5th generation: P5) were washed once with phosphate buffered saline (PBS, calcium-free and magnesium-free, PBS(−), Cell Science & Technology Institute, Inc.), then detached with use of a cell detachment agent TrypLE Select CTS (Thermo Fisher Scientific Inc.), were collected, and suspended in a washing medium (DMEM, Sigma). Then, the cells were transferred to a tube for centrifugation, and subjected to centrifugation at 1500 rpm at room temperature for 5 minutes. The separated single cells were further suspended in a washing medium, and the number of cells was counted using trypan blue staining. The cells were inoculated onto a 6-well plate (SUMITOMO BAKELITE CO., LTD.) containing a STK (registered trademark) 2 at a density of 40×10^4 cells/cm^2, and cultured (high-density culture) in an incubator at 37° C. and 5% CO2 for 7 days. Culture media were replaced three days after the inoculation and five days after the inoculation. […]

| Compound | cryopreservative effect on scaffold-free, three-dimensional mass of mesenchymal stem cells |
| --- | --- |
| CCCCC/C=C\C/C=C\CCCCCCCC(=O)O [linoleic acid, Linoleic Acid] | effective; also recorded: greater than the cryopreservative effect achieved by methyl-β-cyclodextrin |
| Phosphatidic acid sodium salt [PA] | effective |
| Tween 80 [reference compound] | not effective |
